Test results taken from PMC12305662, “Fragment-Based Development of Small Molecule Inhibitors Targeting Mycobacterium tuberculosis Cholesterol Metabolism” (Journal of Medicinal Chemistry, 2025).

How the values were obtained:
CYP144 = CYP144 (Mycobacterium tuberculosis, UniProt P9WPL1); details: fragment 1 mM, P450 4-6 µM; relative to DMSO (421 nm)
CYP125 = CYP125 (Mycobacterium tuberculosis, UniProt P9WPP1); assay type: binding; details: fragment 1 mM, P450 4-6 µM; Soret shift relative to DMSO (393 nm)
CYP142 = CYP142 (Mycobacterium tuberculosis, UniProt P9WPL5); details: fragment 1 mM, P450 4-6 µM; relative to DMSO (418.5 nm)
CYP143 = CYP143 (Mycobacterium tuberculosis, UniProt P9WPL3); details: fragment 1 mM, P450 4-6 µM; relative to DMSO (416 nm)
CYP126 = CYP126 (Mycobacterium tuberculosis, UniProt P9WPN9); details: fragment 1 mM, P450 4-6 µM; relative to DMSO (418 nm)
CYP124 = CYP124 (Mycobacterium tuberculosis, UniProt P9WPP3); details: fragment 1 mM, P450 4-6 µM; relative to DMSO (419 nm)
CYP121 = CYP121 (Mycobacterium tuberculosis, UniProt P9WPP7); details: fragment 1 mM, P450 4-6 µM; relative to DMSO (417 nm)
Sequence of CYP121 (P9WPP7 whole entry, the tested form may be a part): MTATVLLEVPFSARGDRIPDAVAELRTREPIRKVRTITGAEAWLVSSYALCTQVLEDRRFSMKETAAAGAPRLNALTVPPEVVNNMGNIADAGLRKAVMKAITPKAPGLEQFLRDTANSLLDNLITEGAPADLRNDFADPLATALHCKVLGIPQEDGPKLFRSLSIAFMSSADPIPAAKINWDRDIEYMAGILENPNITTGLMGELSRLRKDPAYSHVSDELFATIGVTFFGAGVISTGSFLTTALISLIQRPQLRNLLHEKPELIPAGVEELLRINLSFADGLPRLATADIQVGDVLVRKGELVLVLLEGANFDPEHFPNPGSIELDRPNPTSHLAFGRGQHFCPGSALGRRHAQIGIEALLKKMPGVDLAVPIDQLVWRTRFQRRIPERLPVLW

Sequence of CYP144 (P9WPL1 whole entry, the tested form may be a part): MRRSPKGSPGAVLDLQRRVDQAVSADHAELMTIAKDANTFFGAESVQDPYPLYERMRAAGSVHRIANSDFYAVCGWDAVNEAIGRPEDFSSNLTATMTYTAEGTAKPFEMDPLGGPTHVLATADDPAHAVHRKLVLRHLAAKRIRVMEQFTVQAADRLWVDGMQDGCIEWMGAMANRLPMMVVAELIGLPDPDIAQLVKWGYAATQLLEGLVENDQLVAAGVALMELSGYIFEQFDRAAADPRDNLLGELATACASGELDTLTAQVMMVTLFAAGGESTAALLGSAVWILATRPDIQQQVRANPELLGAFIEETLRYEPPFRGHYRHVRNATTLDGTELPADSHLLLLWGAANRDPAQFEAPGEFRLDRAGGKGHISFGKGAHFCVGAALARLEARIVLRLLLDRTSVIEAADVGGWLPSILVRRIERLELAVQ
Sequence of CYP142 (P9WPL5 whole entry, the tested form may be a part): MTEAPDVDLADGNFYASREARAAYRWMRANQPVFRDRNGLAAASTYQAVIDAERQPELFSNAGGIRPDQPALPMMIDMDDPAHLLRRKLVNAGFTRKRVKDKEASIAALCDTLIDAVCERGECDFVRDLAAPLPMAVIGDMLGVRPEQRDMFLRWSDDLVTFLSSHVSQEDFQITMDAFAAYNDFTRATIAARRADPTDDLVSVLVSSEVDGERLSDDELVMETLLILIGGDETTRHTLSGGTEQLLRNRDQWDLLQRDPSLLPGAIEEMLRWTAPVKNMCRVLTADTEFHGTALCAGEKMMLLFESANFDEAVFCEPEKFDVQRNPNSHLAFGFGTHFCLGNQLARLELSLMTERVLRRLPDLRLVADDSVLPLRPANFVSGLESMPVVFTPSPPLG
Sequence of CYP125 (P9WPP1 whole entry, the tested form may be a part): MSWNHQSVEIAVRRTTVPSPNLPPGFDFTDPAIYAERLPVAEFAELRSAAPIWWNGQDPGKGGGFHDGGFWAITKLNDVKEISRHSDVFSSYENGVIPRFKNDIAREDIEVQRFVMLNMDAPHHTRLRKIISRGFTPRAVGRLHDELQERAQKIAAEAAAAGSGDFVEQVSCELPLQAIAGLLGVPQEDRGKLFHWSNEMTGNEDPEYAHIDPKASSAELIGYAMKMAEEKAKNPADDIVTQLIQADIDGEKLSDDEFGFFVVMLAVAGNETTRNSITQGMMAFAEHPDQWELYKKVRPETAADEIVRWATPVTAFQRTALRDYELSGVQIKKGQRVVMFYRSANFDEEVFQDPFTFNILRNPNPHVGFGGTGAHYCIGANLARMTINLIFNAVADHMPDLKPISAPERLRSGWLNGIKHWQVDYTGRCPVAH
Sequence of CYP126 (P9WPN9 whole entry, the tested form may be a part): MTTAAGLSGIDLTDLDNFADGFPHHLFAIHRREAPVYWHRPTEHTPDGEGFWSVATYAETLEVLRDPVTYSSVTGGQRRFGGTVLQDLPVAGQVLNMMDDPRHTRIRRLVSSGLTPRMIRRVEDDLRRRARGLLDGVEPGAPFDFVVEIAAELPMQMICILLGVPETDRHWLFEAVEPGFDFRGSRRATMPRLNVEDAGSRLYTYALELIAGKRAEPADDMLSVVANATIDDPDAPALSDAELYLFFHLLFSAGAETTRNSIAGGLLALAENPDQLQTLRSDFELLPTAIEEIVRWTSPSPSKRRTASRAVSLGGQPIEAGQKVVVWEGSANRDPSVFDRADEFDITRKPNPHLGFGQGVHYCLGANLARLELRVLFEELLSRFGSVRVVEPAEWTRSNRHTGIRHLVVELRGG
Sequence of CYP124 (P9WPP3 whole entry, the tested form may be a part): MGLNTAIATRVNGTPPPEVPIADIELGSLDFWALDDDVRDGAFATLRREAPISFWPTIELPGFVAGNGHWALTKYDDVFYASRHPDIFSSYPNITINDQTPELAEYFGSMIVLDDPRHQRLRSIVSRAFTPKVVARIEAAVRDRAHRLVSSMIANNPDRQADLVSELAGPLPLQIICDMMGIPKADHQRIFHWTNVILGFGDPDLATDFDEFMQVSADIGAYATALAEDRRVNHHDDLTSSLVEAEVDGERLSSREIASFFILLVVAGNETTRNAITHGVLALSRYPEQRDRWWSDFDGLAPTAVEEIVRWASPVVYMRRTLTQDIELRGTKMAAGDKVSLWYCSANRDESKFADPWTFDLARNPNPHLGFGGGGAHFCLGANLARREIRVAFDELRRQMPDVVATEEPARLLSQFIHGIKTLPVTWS
Sequence of CYP143 (P9WPL3 whole entry, the tested form may be a part): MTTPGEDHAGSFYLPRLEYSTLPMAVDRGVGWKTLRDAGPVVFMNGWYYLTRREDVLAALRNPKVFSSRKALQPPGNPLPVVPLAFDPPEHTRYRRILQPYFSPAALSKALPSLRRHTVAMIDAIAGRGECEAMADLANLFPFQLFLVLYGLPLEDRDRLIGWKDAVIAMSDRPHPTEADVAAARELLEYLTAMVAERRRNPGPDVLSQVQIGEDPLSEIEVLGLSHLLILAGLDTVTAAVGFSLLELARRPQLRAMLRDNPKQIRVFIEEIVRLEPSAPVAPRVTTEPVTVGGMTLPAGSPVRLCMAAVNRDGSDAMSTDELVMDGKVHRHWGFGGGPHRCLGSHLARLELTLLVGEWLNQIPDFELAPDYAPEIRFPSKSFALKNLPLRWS

Clc1cncc(Cl)c1 [compound 19] was tested, and the “Δλmax (nm) CYP144, fragment screen” value (CYP144) was 0 nm, the “Δλmax (nm) CYP125, fragment screen” value (CYP125) was 0 nm and the “Δλmax (nm) CYP142, fragment screen” value (CYP142) was 0 nm. The “Δλmax (nm) CYP143, fragment screen” value (CYP143) was 0 nm, the “Δλmax (nm) CYP126, fragment screen” value (CYP126) was 0 nm and the “Δλmax (nm) CYP124, fragment screen” value (CYP124) was 0 nm. The “Δλmax (nm) CYP121, fragment screen” value (CYP121) was 0 nm.

With c1ccc(Cc2cccnc2)cc1 [compound 20] the “Δλmax (nm) CYP144, fragment screen” value (CYP144) was 0 nm, the “Δλmax (nm) CYP125, fragment screen” value (CYP125) was 28 nm and the “Δλmax (nm) CYP142, fragment screen” value (CYP142) was 3 nm. The “Δλmax (nm) CYP143, fragment screen” value (CYP143) was 2 nm, the “Δλmax (nm) CYP126, fragment screen” value (CYP126) was 1 nm and the “Δλmax (nm) CYP124, fragment screen” value (CYP124) was 1 nm. The “Δλmax (nm) CYP121, fragment screen” value (CYP121) was 2 nm.

CNCc1cccc(-c2ccccc2)c1 [compound 21] was tested, and the “Δλmax (nm) CYP144, fragment screen” value (CYP144) was 0 nm, the “Δλmax (nm) CYP125, fragment screen” value (CYP125) was 25 nm and the “Δλmax (nm) CYP142, fragment screen” value (CYP142) was 3 nm. For the same molecule, the “Δλmax (nm) CYP143, fragment screen” value (CYP143) was 4 nm, the “Δλmax (nm) CYP126, fragment screen” value (CYP126) was 1 nm and the “Δλmax (nm) CYP124, fragment screen” value (CYP124) was -1 nm. The “Δλmax (nm) CYP121, fragment screen” value (CYP121) was 0 nm.

In the case of O=C(O)c1ccccc1-n1cccn1 [compound 22], the “Δλmax (nm) CYP144, fragment screen” value (CYP144) is reported as 0 nm, the “Δλmax (nm) CYP125, fragment screen” value (CYP125) is reported as 0 nm and the “Δλmax (nm) CYP142, fragment screen” value (CYP142) is reported as 0 nm. The “Δλmax (nm) CYP143, fragment screen” value (CYP143) was 0 nm, the “Δλmax (nm) CYP126, fragment screen” value (CYP126) was 0 nm and the “Δλmax (nm) CYP124, fragment screen” value (CYP124) was 0 nm. For the same molecule, the “Δλmax (nm) CYP121, fragment screen” value (CYP121) was 0 nm.

In the case of Nc1ccc(Br)cn1 [compound 23], the “Δλmax (nm) CYP144, fragment screen” value (CYP144) is reported as 0 nm, the “Δλmax (nm) CYP125, fragment screen” value (CYP125) is reported as 0 nm and the “Δλmax (nm) CYP142, fragment screen” value (CYP142) is reported as 0 nm. For the same molecule, the “Δλmax (nm) CYP143, fragment screen” value (CYP143) was 0.5 nm, the “Δλmax (nm) CYP126, fragment screen” value (CYP126) was 0 nm and the “Δλmax (nm) CYP124, fragment screen” value (CYP124) was 0 nm. The “Δλmax (nm) CYP121, fragment screen” value (CYP121) was -1 nm.

With Cc1cc(O)nnc1O [compound 24] the “Δλmax (nm) CYP144, fragment screen” value (CYP144) was 0 nm, the “Δλmax (nm) CYP125, fragment screen” value (CYP125) was 0 nm and the “Δλmax (nm) CYP142, fragment screen” value (CYP142) was 0 nm. For the same molecule, the “Δλmax (nm) CYP143, fragment screen” value (CYP143) was 0 nm, the “Δλmax (nm) CYP126, fragment screen” value (CYP126) was 0 nm and the “Δλmax (nm) CYP124, fragment screen” value (CYP124) was 0 nm. The “Δλmax (nm) CYP121, fragment screen” value (CYP121) was -1 nm.

In the case of COC(=O)c1ccnc(N)c1 [compound 25], the “Δλmax (nm) CYP144, fragment screen” value (CYP144) is reported as 0 nm, the “Δλmax (nm) CYP125, fragment screen” value (CYP125) is reported as 0 nm and the “Δλmax (nm) CYP142, fragment screen” value (CYP142) is reported as 0 nm. For the same molecule, the “Δλmax (nm) CYP143, fragment screen” value (CYP143) was 0.5 nm, the “Δλmax (nm) CYP126, fragment screen” value (CYP126) was 0 nm and the “Δλmax (nm) CYP124, fragment screen” value (CYP124) was 0 nm. For the same molecule, the “Δλmax (nm) CYP121, fragment screen” value (CYP121) was 0 nm.

In the case of COC(=O)c1cc2ccccc2cn1 [compound 26], the “Δλmax (nm) CYP144, fragment screen” value (CYP144) is reported as 0 nm, the “Δλmax (nm) CYP125, fragment screen” value (CYP125) is reported as 0 nm and the “Δλmax (nm) CYP142, fragment screen” value (CYP142) is reported as 0 nm. The “Δλmax (nm) CYP143, fragment screen” value (CYP143) was 1 nm, the “Δλmax (nm) CYP126, fragment screen” value (CYP126) was 0 nm and the “Δλmax (nm) CYP124, fragment screen” value (CYP124) was 0 nm. The “Δλmax (nm) CYP121, fragment screen” value (CYP121) was 0 nm.

With Clc1nccc2ccc(Br)cc12 [compound 37] the “Δλmax (nm) CYP144, fragment screen” value (CYP144) was 0 nm, the “Δλmax (nm) CYP125, fragment screen” value (CYP125) was 0 nm and the “Δλmax (nm) CYP142, fragment screen” value (CYP142) was 0 nm. For the same molecule, the “Δλmax (nm) CYP126, fragment screen” value (CYP126) was 0 nm, the “Δλmax (nm) CYP124, fragment screen” value (CYP124) was 0 nm and the “Δλmax (nm) CYP121, fragment screen” value (CYP121) was -3 nm.

Nc1cccnc1O [compound 45] was tested, and the “Δλmax (nm) CYP144, fragment screen” value (CYP144) was 0 nm, the “Δλmax (nm) CYP125, fragment screen” value (CYP125) was 0 nm and the “Δλmax (nm) CYP142, fragment screen” value (CYP142) was 0 nm. For the same molecule, the “Δλmax (nm) CYP143, fragment screen” value (CYP143) was 0 nm, the “Δλmax (nm) CYP126, fragment screen” value (CYP126) was 0 nm and the “Δλmax (nm) CYP124, fragment screen” value (CYP124) was 0 nm.

With O=[N+]([O-])c1ccc(Br)c2ccncc12 [compound 59] the “Δλmax (nm) CYP144, fragment screen” value (CYP144) was 0 nm, the “Δλmax (nm) CYP125, fragment screen” value (CYP125) was 0 nm and the “Δλmax (nm) CYP142, fragment screen” value (CYP142) was 0 nm. The “Δλmax (nm) CYP126, fragment screen” value (CYP126) was 0 nm and the “Δλmax (nm) CYP124, fragment screen” value (CYP124) was 1 nm.

In the case of Clc1cccnc1Cl [compound 61], the “Δλmax (nm) CYP144, fragment screen” value (CYP144) is reported as 0 nm, the “Δλmax (nm) CYP142, fragment screen” value (CYP142) is reported as 0 nm and the “Δλmax (nm) CYP143, fragment screen” value (CYP143) is reported as 0 nm. The “Δλmax (nm) CYP126, fragment screen” value (CYP126) was 0 nm, the “Δλmax (nm) CYP124, fragment screen” value (CYP124) was 0 nm and the “Δλmax (nm) CYP121, fragment screen” value (CYP121) was 0 nm.

With Nn1cccc1C(=O)O [compound 62] the “Δλmax (nm) CYP144, fragment screen” value (CYP144) was 0 nm, the “Δλmax (nm) CYP142, fragment screen” value (CYP142) was 0 nm and the “Δλmax (nm) CYP143, fragment screen” value (CYP143) was 4 nm. The “Δλmax (nm) CYP126, fragment screen” value (CYP126) was 0 nm and the “Δλmax (nm) CYP124, fragment screen” value (CYP124) was 0 nm.

In the case of COc1ncccc1C(=O)O [compound 65], the “Δλmax (nm) CYP144, fragment screen” value (CYP144) is reported as 0 nm, the “Δλmax (nm) CYP142, fragment screen” value (CYP142) is reported as 0 nm and the “Δλmax (nm) CYP143, fragment screen” value (CYP143) is reported as 1 nm. For the same molecule, the “Δλmax (nm) CYP126, fragment screen” value (CYP126) was 0 nm, the “Δλmax (nm) CYP124, fragment screen” value (CYP124) was 0 nm and the “Δλmax (nm) CYP121, fragment screen” value (CYP121) was 0 nm.

With Nc1cccnc1N [compound 66] the “Δλmax (nm) CYP144, fragment screen” value (CYP144) was 0 nm, the “Δλmax (nm) CYP142, fragment screen” value (CYP142) was 0 nm and the “Δλmax (nm) CYP143, fragment screen” value (CYP143) was 0 nm. For the same molecule, the “Δλmax (nm) CYP126, fragment screen” value (CYP126) was 0 nm and the “Δλmax (nm) CYP124, fragment screen” value (CYP124) was 0 nm.
